From US20200079765A1, “SUBSTITUTED HETEROARYL PYRROLONES AND SALTS THEREOF AND USE THEREOF AS HERBICIDAL ACTIVE SUBSTANCES” (Bayer CropScience Aktiengesellschaft, priority 2016, published 2020)

How the values were obtained:
Experiment in all cases: Post-emergence herbicidal action (Experimental Part 1, A)
Assay type in all cases: in vivo
Abutilon theophrasti = conditions: about 3 weeks after treatment, 100% = plants have died, 0% = like control plants
Method: (§1) Seeds of monocotyledonous and dicotyledonous weeds and crop plants were placed in sandy loam in plastic or wood-fiber pots, covered with soil and cultivated in a greenhouse under controlled growth conditions. 2 to 3 weeks after sowing, the test plants were treated at the one-leaf stage. The compounds of the invention, formulated in the form of wettable powders (WP) or as emulsion concentrates (EC), were then sprayed onto the green parts of the plants as aqueous suspension or emulsion with addition of 0.5% additive at a water application rate of 600 l/ha (converted). After the test plants had been kept in the greenhouse under optimum growth conditions for about 3 weeks, the activity of the preparations was rated visually in comparison to untreated controls. For example, 100% activity=the plants have died, 0% activity=like control plants. Tables A1 to A14 below show the effects of selected compounds of the general formula (I) according to Tables I.1 to I.116 on various harmful plants and an application rate corresponding to 1280 g/ha or 320 g/ha, which were obtained by the experimental procedure mentioned above.

Alopecurus myosuroides = conditions: about 3 weeks after treatment, 100% = plants have died, 0% = like control plants
Method: as §1

Amaranthus retroflexus = conditions: about 3 weeks after treatment, 100% = plants have died, 0% = like control plants
Method: as §1

Avena fatua = conditions: rated visually after about 3 weeks
Method: as §1

Echinochloa crus-galli = conditions: about 3 weeks after treatment, 100% = plants have died, 0% = like control plants
Method: as §1

Hordeum murinum = conditions: application rate 1280 g/ha, rated visually after about 3 weeks
Method: as §1

Ipomoea purpurea = conditions: rated visually after about 3 weeks
Method: as §1

Lolium rigidum = conditions: application rate 1280 g/ha, rated visually after about 3 weeks
Method: as §1

Matricaria inodora = conditions: rated visually after about 3 weeks
Method: as §1

Polygonum convolvulus = conditions: rated visually after about 3 weeks
Method: as §1

Setaria viridis = conditions: about 3 weeks after treatment, 100% = plants have died, 0% = like control plants
Method: as §1

Stellaria media = conditions: rated visually after about 3 weeks
Method: as §1

Veronica persica = conditions: application rate 1280 g/ha, about 3 weeks after treatment, 100% = plants have died, 0% = like control plants
Method: as §1

Viola tricolor = conditions: rated visually after about 3 weeks
Method: as §1

SMILES	herbicidal activity on Abutilon theophrasti (visual rating vs untreated controls) (Abutilon theophrasti; application rate 320 g/ha) [%]	herbicidal activity on Abutilon theophrasti (visual rating vs untreated controls) (Abutilon theophrasti; application rate 1280 g/ha) [%]	herbicidal activity on Alopecurus myosuroides (visual rating vs untreated controls) (Alopecurus myosuroides; application rate 320 g/ha) [%]	herbicidal activity on Alopecurus myosuroides (visual rating vs untreated controls) (Alopecurus myosuroides; application rate 1280 g/ha) [%]	herbicidal activity on Amaranthus retroflexus (visual rating vs untreated controls) (Amaranthus retroflexus; application rate 1280 g/ha) [%]	Avena fatua, herbicidal activity (Avena fatua; application rate 1280 g/ha) [%]	herbicidal activity on Echinochloa crus-galli (visual rating vs untreated controls) (Echinochloa crus-galli; application rate 1280 g/ha) [%]	Hordeum murinum, herbicidal activity (Hordeum murinum) [%]	Ipomoea purpurea, herbicidal activity (Ipomoea purpurea; application rate 1280 g/ha) [%]	Matricaria inodora, herbicidal activity (Matricaria inodora; application rate 1280 g/ha) [%]	Polygonum convolvulus, herbicidal activity (Polygonum convolvulus; application rate 320 g/ha) [%]	Polygonum convolvulus, herbicidal activity (Polygonum convolvulus; application rate 1280 g/ha) [%]	herbicidal activity on Setaria viridis (visual rating vs untreated controls) (Setaria viridis; application rate 320 g/ha) [%]	herbicidal activity on Setaria viridis (visual rating vs untreated controls) (Setaria viridis; application rate 1280 g/ha) [%]	Stellaria media, herbicidal activity (Stellaria media; application rate 320 g/ha) [%]	Stellaria media, herbicidal activity (Stellaria media; application rate 1280 g/ha) [%]	herbicidal activity on Veronica persica (visual rating vs untreated controls) (Veronica persica) [%]	Viola tricolor, herbicidal activity (Viola tricolor; application rate 320 g/ha) [%]	Viola tricolor, herbicidal activity (Viola tricolor; application rate 1280 g/ha) [%]	also measured
CCC(=O)OC1C(C)=CC(=O)N1c1cc(C(C)(C)C)on1 (centres unmarked) [I.5-162]	100	100	90	100	100	100	100	100	90	100	100	100	100	100	100	100	100	100	100	Lolium rigidum, herbicidal activity (Lolium rigidum): 90%
CC1=CC(=O)N(c2cc(C(C)(C)C)on2)C1O (centres unmarked) [I.1-162, 5-Hydroxy-4-methyl-1-(5-tert-butyl-1,2-isoxazol-3-yl)-1,5-dihydro-2H-pyrrol-2-one]	100	100	90	100	100	100	100	100	100	100	100	100	100	100	100	100	100	100	100	herbicidal activity on Amaranthus retroflexus (visual rating vs untreated controls) (Amaranthus retroflexus; application rate 320 g/ha): 100%; Avena fatua, herbicidal activity (Avena fatua; application rate 320 g/ha): 90%; herbicidal activity on Echinochloa crus-galli (visual rating vs untreated controls) (Echinochloa crus-galli; application rate 320 g/ha): 100%; Ipomoea purpurea, herbicidal activity (Ipomoea purpurea; application rate 320 g/ha): 100%; Matricaria inodora, herbicidal activity (Matricaria inodora; application rate 320 g/ha): 100%
